“And” between values parts separate entries of the source, which are not always exact repeats. Identical values can stand only once.
Legend:
[1] = target: T1, human nSMase2 (Homo sapiens, UniProt Q9NY59); test: Fluorescence (Amplex red coupled) nSMase2 activity assay; format: biochemical; set-up: Full length human nSMase2 cDNA with a C-terminal Flag tag; crude cell lysate used as enzyme
T1 sequence (Q9NY59 1-655): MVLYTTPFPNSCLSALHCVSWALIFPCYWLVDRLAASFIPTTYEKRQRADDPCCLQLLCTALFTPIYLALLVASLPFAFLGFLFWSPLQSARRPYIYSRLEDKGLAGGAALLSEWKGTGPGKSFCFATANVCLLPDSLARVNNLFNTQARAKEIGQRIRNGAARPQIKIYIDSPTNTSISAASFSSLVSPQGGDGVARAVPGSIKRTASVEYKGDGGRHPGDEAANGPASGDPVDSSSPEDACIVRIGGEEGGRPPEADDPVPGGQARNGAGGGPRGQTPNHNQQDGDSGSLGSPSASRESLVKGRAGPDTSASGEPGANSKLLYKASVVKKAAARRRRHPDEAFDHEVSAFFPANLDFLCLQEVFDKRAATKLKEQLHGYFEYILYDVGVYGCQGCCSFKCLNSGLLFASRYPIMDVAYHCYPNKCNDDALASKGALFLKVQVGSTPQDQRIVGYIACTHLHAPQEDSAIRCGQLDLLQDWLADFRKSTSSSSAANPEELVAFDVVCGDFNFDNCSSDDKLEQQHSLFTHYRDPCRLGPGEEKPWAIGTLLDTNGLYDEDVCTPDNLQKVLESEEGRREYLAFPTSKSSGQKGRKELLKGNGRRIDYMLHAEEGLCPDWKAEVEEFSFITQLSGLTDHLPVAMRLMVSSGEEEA
Experimental: The production of the latter was coupled to a dephosphorylation reaction catalyzed by alkaline phosphatase (4 U/ml) to produce choline, followed by oxidation of choline by choline oxidase (0.1 U/ml) to produce betaine and H2O2, which in the presence of horseradish peroxidase (HRP, 1U/ml) and 50 μM Amplex red, generates the fluorescent molecule resorufin (Life Technologies). Substrate stock solution was prepared in 2% Triton X-100, vortexed and sonicated for 30 min. Reactions were carried out for 1 h at 37°C in 100 mM Tris-HCl pH 7.4, 10 mM MgCl2, 0.2% Triton X-100 and the generation of the fluorescent product was monitored by measuring relative florescence units (RFU) with excitation at 530 nm and emission at 590 nm (Fig 1). This assay was optimized for 384-well format (50 μl total volume per well) based on linearity of the enzymatic activity with respect to time, as well as substrate and enzyme concentrations. […] This fluorescence assay was used for compound screening and IC50 value determinations, based on duplicate eight-point dose response curves.

[2] = target: T1, human nSMase2; test: 14C-SM confirmatory direct activity assay; format: biochemical; set-up: Full length human nSMase2 cDNA with a C-terminal Flag tag; host or cells: HEK293, stably transfected; crude cell lysate used as enzyme
Experimental: This assay was dependent on the direct hydrolysis of ^14C-labeled SM (^14C N-methyl groups in the phosphorylcholine) by human nSMase2. Optimization of assay conditions was accomplished according to the methods of Barbone et al.. Briefly, bovine [N-methyl-^14C]-sphingomyelin (specific activity […], Perkin Elmer) and phosphatidylinositol (Avanti Polar Lipids) were evaporated to dryness under a stream of nitrogen and resuspended at an equimolar concentration of 0.1 mM in water with 0.5% Triton X-100 (Sigma). The solution was vortexed for 30 min and then sonicated for 30 min. Assay conditions were as follows: 50 μl total volume per reaction, consisting of 20 μM SM, reaction buffer (100 mM Tris-HCl pH 7.5, 80 mM MgCl2, 0.1% Triton X-100); 10 μl cell lysate containing recombinant human nSMase2 (0.5–1 μg protein/assay) and 5 μl of compound in reaction buffer containing 10% DMSO. After 1 h incubation at 37°C the reaction was terminated by the addition of 30 μl of water and 175 μl of chloroform/methanol (2:1, v:v), followed by vigorous vortexing. Tubes were centrifuged for 5 min at 10,000 xg at room temperature to separate the organic bottom phase containing labeled SM and the aqueous upper phase containing ^14C-labeled-phosphorylcholine. An aliquot (50 μl) of the upper phase was transferred to a vial with 10 ml of scintillant and counted for 2 min on a Beckman LS-6000IC scintillation counter. Enzyme activity was directly proportional to the disintegrations per min (dpm) resulting from the generation of ^14C-phosphorylcholine.

O=c1[nH]c(=S)[nH]c(-c2ccccc2)c1Cc1c(O)ccc2ccccc12 [Cambinol, cambinol]
1/V ([1]; 1/[SM] 0.002 µM^-1, 2 µM Cambinol): 0.00052 h/RFU | 1/V ([1]; 1/[SM] 0.002 µM^-1, 3 µM Cambinol): 0.00066 h/RFU | 1/V ([1]; 1/[SM] 0.002 µM^-1, 5 µM Cambinol): 0.00102 h/RFU | 1/V ([1]; 1/[SM] 0.003 µM^-1, 2 µM Cambinol): 0.00062 h/RFU | 1/V ([1]; 1/[SM] 0.003 µM^-1, 3 µM Cambinol): 0.00078 h/RFU | 1/V ([1]; 1/[SM] 0.003 µM^-1, 5 µM Cambinol): 0.00109 h/RFU | 1/V ([1]; 1/[SM] 0.006 µM^-1, 2 µM Cambinol): 0.00075 h/RFU | 1/V ([1]; 1/[SM] 0.006 µM^-1, 3 µM Cambinol): 0.00095 h/RFU | 1/V ([1]; 1/[SM] 0.006 µM^-1, 5 µM Cambinol): 0.00128 h/RFU | 1/V ([1]; 1/[SM] 0.013 µM^-1, 2 µM Cambinol): 0.00096 h/RFU | 1/V ([1]; 1/[SM] 0.013 µM^-1, 3 µM Cambinol): 0.00118 h/RFU | 1/V ([1]; 1/[SM] 0.013 µM^-1, 5 µM Cambinol): 0.00146 h/RFU | V ([1]; [SM] 19.5 µM, 2 µM Cambinol): 641 RFU/h | V ([1]; [SM] 19.5 µM, 3 µM Cambinol): 571 RFU/h | V ([1]; [SM] 19.5 µM, 5 µM Cambinol): 500 RFU/h | V ([1]; [SM] 39.0 µM, 2 µM Cambinol): 752 RFU/h | V ([1]; [SM] 39.0 µM, 3 µM Cambinol): 663 RFU/h | V ([1]; [SM] 39.0 µM, 5 µM Cambinol): 567 RFU/h | V ([1]; [SM] 78.0 µM, 2 µM Cambinol): 1042 RFU/h | V ([1]; [SM] 78.0 µM, 3 µM Cambinol): 849 RFU/h | V ([1]; [SM] 78.0 µM, 5 µM Cambinol): 684 RFU/h | V ([1]; [SM] 156.0 µM, 2 µM Cambinol): 1336 RFU/h | V ([1]; [SM] 156.0 µM, 3 µM Cambinol): 1055 RFU/h | V ([1]; [SM] 156.0 µM, 5 µM Cambinol): 784 RFU/h | V ([1]; [SM] 313.0 µM, 2 µM Cambinol): 1621 RFU/h | V ([1]; [SM] 313.0 µM, 3 µM Cambinol): 1288 RFU/h | V ([1]; [SM] 313.0 µM, 5 µM Cambinol): 922 RFU/h | mode of inhibition (MOI) ([1]; human nSMase2): uncompetitive | %Inhibition ([2]; Log [compound] -3.0): 92.0% and 91.0% | %Inhibition ([2]; Log [compound] -3.47756): 99.0% and 86.0% | %Inhibition ([2]; Log [compound] -4.0): 83.0% and 80.0% | %Inhibition ([2]; Log [compound] -5.0): 56.0% and 57.0% | %Inhibition ([2]; Log [compound] -5.47756): 46.0% and 47.0% | %Inhibition ([2]; Log [compound] -6.0): 13.0% and 15.0% | %Inhibition ([2]; Log [compound] -7.0): 0.0% and 10.0% | %Inhibition ([2]; Log [compound] -7.47756): 8.0% and 10.0% | %Inhibition ([2]; Log [compound] -8.0): 8.0% and 11.0% | %Inhibition ([2]; Log [compound] -8.47756): 14.0% and 7.0% | %Inhibition ([2]; Log [compound] -9.0): 6.0% and 4.0% | %Inhibition ([2]; Log [compound] -9.47756): 12.0% and 18.0* % | inhibition at 10 µM ([2]; at 10 μM): > 80%

Source: publication PMC4444023 (PLoS ONE, 2015)
